# From ChEMBL document CHEMBL3856276, “Design, Synthesis, and Biological Evaluation of Novel Tetrahydroprotoberberine Derivatives (THPBs) as Selective α1A-Adrenoceptor Antagonists” (J Med Chem, 2016)
# How the values were obtained:
# [1] = biological target: T1, Alpha-1A adrenergic receptor (Rattus norvegicus, UniProt P43140); assay: Antagonist activity at alpha1A adrenoceptor in Sprague-Dawley rat urethra assessed as inhibition of norepinephrine-induced smooth muscle contraction after 20 mins
# T1 sequence (P43140 whole entry): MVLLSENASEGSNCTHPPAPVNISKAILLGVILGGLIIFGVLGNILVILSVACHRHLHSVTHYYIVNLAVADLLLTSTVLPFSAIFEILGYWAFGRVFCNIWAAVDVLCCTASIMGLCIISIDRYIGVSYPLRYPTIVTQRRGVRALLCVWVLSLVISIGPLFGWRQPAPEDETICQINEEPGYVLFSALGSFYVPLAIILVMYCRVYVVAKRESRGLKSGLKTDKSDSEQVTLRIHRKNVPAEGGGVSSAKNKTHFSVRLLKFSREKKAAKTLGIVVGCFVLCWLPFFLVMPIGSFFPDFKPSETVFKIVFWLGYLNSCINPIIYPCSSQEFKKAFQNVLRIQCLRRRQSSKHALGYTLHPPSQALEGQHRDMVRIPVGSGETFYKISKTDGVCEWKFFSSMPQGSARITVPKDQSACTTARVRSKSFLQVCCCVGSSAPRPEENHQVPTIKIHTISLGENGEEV
# [2] = test system: Mus musculus; assay: Acute toxicity in Kunming mouse assessed as effect on behavior at 500 mg/kg, po administered as single dose measured over 7 days; format: organism-based; settings: in vivo, 168 h
# [3] = test system: Mus musculus; assay: Acute toxicity in Kunming mouse assessed as mortality at 500 mg/kg, po administered as single dose measured over 7 days; format: organism-based; settings: in vivo, 168 h
# [4] = AUC (0 to t) in rat at 10 mg/kg, iv; format: ADME, organism-based; settings: in vivo
# [5] = Half life in rat at 20 mg/kg, ig via oral gavage; format: ADME, organism-based; settings: in vivo
# [6] = biological target: T2, Alpha-1D adrenergic receptor (Homo sapiens, UniProt P25100)
# T2 sequence (P25100 whole entry): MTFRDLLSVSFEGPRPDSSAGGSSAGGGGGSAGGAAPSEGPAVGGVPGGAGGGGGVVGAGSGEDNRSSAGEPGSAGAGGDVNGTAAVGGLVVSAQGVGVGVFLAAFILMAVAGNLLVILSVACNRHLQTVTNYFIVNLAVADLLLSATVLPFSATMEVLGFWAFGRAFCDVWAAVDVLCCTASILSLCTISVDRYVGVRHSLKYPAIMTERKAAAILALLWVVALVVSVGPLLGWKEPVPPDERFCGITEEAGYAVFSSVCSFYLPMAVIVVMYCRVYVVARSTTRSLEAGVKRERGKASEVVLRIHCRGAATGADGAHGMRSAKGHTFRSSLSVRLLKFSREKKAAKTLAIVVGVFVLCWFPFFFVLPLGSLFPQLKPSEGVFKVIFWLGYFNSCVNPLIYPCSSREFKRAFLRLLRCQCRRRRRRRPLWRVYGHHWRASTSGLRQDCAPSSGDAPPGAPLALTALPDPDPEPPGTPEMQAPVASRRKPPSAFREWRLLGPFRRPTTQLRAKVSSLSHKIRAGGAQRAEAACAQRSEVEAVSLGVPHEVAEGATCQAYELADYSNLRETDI
# Description: Antagonist activity at human full-length N-terminal SNAP-tagged alpha1D adrenoceptor expressed in HEK293 cells assessed as inhibition of agonist-induced calcium mobilization preincubated for 10 mins followed by agonist addition by fluo-4 AM dye-based assay
# [7] = AUC (0 to t) in rat at 20 mg/kg, ig via oral gavage; format: ADME, organism-based; settings: in vivo
# [8] = species: Homo sapiens; assay: Selectivity ratio of IC50 for human full-length N-terminal SNAP-tagged alpha1D adrenoceptor to IC50 for human full-length N-terminal SNAP-tagged alpha1A adrenoceptor
smiles,measurement,setting,value
COc1ccc2[nH]c3c(c2c1)C[C@H]1c2cc4c(cc2CCN1C3)OCO4,IC50,[1],0.5 nM
same,Activity,[2],Non-Toxic
same,Activity,[3],Non-Toxic
same,AUC(0-t),[4],1870 ng·h/mL
same,half-life,[5],1.18 h
same,IC50,[6],251 nM
same,AUC(0-t),[7],2270 ng·h/mL
same,Ratio IC50,[8],19.6
